Reference: ChEMBL document CHEMBL4316608, “Artemisinin-indole and artemisinin-imidazole hybrids: Synthesis, cytotoxic evaluation and reversal effects on multidrug resistance in MCF-7/ADR cells” (Bioorg Med Chem Lett, 2019)
pIC50: −log10 of the molar value.

Tested on: L02
Test: Cytotoxicity against human L02 cells measured after 48 hrs by MTT assay
Format: cell-based
Conditions: L02, 48 h

SMILES | pIC50
C[C@H]1[C@@H](O)O[C@@H]2O[C@@]3(C)CC[C@H]4[C@H](C)CC[C@@H]1[C@@]24OO3 [ARTENIMOL] | 4.40
C[C@H]1[C@H](OC(=O)CCC(=O)OCCCCn2ccnc2[N+](=O)[O-])O[C@@H]2O[C@@]3(C)CC[C@H]4[C@H](C)CC[C@@H]1[C@@]24OO3 | 4.34
C[C@H]1[C@H](OC(=O)CCC(=O)OCCCn2cnc(Br)c2)O[C@@H]2O[C@@]3(C)CC[C@H]4[C@H](C)CC[C@@H]1[C@@]24OO3 | < 4.00
COc1ccc2[nH]cc(C(=O)OC3O[C@@H]4O[C@@]5(C)CC[C@H]6[C@H](C)CC[C@@H]([C@H]3C)[C@@]46OO5)c2c1 (stereo partly drawn) | 4.44
C[C@@H]1CC[C@H]2[C@@H](C)C(OC(=O)c3c[nH]c4ccccc34)O[C@@H]3O[C@@]4(C)CC[C@@H]1[C@]32OO4 (stereo partly drawn) | 4.37

Tested on: not listed separately
Test: Toxicity in human MCF7 cells assessed as inhibition of cell proliferation at 5 uM measured after 48 hrs by MTT assay
Format: cell-based
Conditions: not given

SMILES | inhibition at 48 h, 5 µM [%]
C[C@H]1[C@H](OC(=O)CCC(=O)OCCCCn2ccnc2[N+](=O)[O-])O[C@@H]2O[C@@]3(C)CC[C@H]4[C@H](C)CC[C@@H]1[C@@]24OO3 | 19.8
C[C@H]1[C@H](OC(=O)CCC(=O)OCCCn2cnc(Br)c2)O[C@@H]2O[C@@]3(C)CC[C@H]4[C@H](C)CC[C@@H]1[C@@]24OO3 | 23.2
COc1ccc2[nH]cc(C(=O)OC3O[C@@H]4O[C@@]5(C)CC[C@H]6[C@H](C)CC[C@@H]([C@H]3C)[C@@]46OO5)c2c1 (stereo partly drawn) | 19.8
C[C@@H]1CC[C@H]2[C@@H](C)C(OC(=O)c3c[nH]c4ccccc34)O[C@@H]3O[C@@]4(C)CC[C@@H]1[C@]32OO4 (stereo partly drawn) | 18.9

Tested on: MDA-MB-231
Test: Antiproliferative activity against human MDA-MB-231 cells measured after 48 hrs by MTT assay
Format: functional, cell-based
Conditions: MDA-MB-231, 48 h

SMILES | pIC50
C[C@H]1[C@@H](O)O[C@@H]2O[C@@]3(C)CC[C@H]4[C@H](C)CC[C@@H]1[C@@]24OO3 [ARTENIMOL] | 4.23
C[C@H]1[C@H](OC(=O)CCC(=O)OCCCCn2ccnc2[N+](=O)[O-])O[C@@H]2O[C@@]3(C)CC[C@H]4[C@H](C)CC[C@@H]1[C@@]24OO3 | 4.07
C[C@H]1[C@H](OC(=O)CCC(=O)OCCCn2cnc(Br)c2)O[C@@H]2O[C@@]3(C)CC[C@H]4[C@H](C)CC[C@@H]1[C@@]24OO3 | 4.09
COc1ccc2[nH]cc(C(=O)OC3O[C@@H]4O[C@@]5(C)CC[C@H]6[C@H](C)CC[C@@H]([C@H]3C)[C@@]46OO5)c2c1 (stereo partly drawn) | 4.15
C[C@@H]1CC[C@H]2[C@@H](C)C(OC(=O)c3c[nH]c4ccccc34)O[C@@H]3O[C@@]4(C)CC[C@@H]1[C@]32OO4 (stereo partly drawn) | 4.23

Tested on: CCRF-CEM
Test: Cytotoxicity against human CCRF-CEM cells by XTT assay
Format: functional, cell-based
Conditions: not given

SMILES | pIC50
C[C@@H]1CC[C@@H]2[C@]34OO[C@](C)(CC[C@@H]13)O[C@H]4OC[C@]2(C)O | 3.81
C[C@H]1[C@@H](O)O[C@@H]2O[C@@]3(C)CC[C@H]4[C@H](C)CC[C@@H]1[C@@]24OO3 [ARTENIMOL] | 6.06

Tested on: MCF7
Test: Antiproliferative activity against human MCF7 cells measured after 48 hrs by MTT assay
Format: functional, cell-based
Conditions: MCF7, 48 h

SMILES | pIC50
C[C@H]1[C@@H](O)O[C@@H]2O[C@@]3(C)CC[C@H]4[C@H](C)CC[C@@H]1[C@@]24OO3 [ARTENIMOL] | 4.46
C[C@H]1[C@H](OC(=O)CCC(=O)OCCCCn2ccnc2[N+](=O)[O-])O[C@@H]2O[C@@]3(C)CC[C@H]4[C@H](C)CC[C@@H]1[C@@]24OO3 | 5.01
C[C@H]1[C@H](OC(=O)CCC(=O)OCCCn2cnc(Br)c2)O[C@@H]2O[C@@]3(C)CC[C@H]4[C@H](C)CC[C@@H]1[C@@]24OO3 | 4.91
COc1ccc2[nH]cc(C(=O)OC3O[C@@H]4O[C@@]5(C)CC[C@H]6[C@H](C)CC[C@@H]([C@H]3C)[C@@]46OO5)c2c1 (stereo partly drawn) | 4.84
C[C@@H]1CC[C@H]2[C@@H](C)C(OC(=O)c3c[nH]c4ccccc34)O[C@@H]3O[C@@]4(C)CC[C@@H]1[C@]32OO4 (stereo partly drawn) | 5.17

Tested on: NCI/ADR-RES
Test: Potentiation of adriamycin-induced antiproliferative activity against human MCF7/ADR cells assessed as fold reduction in adriamycin IC50 at 5 uM measured after 48 hrs by MTT assay
Format: functional
Conditions: not given

SMILES | fold change (FC)
COc1ccc(CCN(C)CCCC(C#N)(c2ccc(OC)c(OC)c2)C(C)C)cc1OC (stereo not drawn) | 39.62
C[C@H]1[C@H](OC(=O)CCC(=O)OCCCCn2ccnc2[N+](=O)[O-])O[C@@H]2O[C@@]3(C)CC[C@H]4[C@H](C)CC[C@@H]1[C@@]24OO3 | 14.71
C[C@H]1[C@H](OC(=O)CCC(=O)OCCCn2cnc(Br)c2)O[C@@H]2O[C@@]3(C)CC[C@H]4[C@H](C)CC[C@@H]1[C@@]24OO3 | 5.6
COc1ccc2[nH]cc(C(=O)OC3O[C@@H]4O[C@@]5(C)CC[C@H]6[C@H](C)CC[C@@H]([C@H]3C)[C@@]46OO5)c2c1 (stereo partly drawn) | 71.89
C[C@@H]1CC[C@H]2[C@@H](C)C(OC(=O)c3c[nH]c4ccccc34)O[C@@H]3O[C@@]4(C)CC[C@@H]1[C@]32OO4 (stereo partly drawn) | 95.85

Tested on: A549
Test: Antiproliferative activity against human A549 cells measured after 48 hrs by MTT assay
Format: functional, cell-based
Conditions: A549, 48 h

SMILES | pIC50
C[C@H]1[C@@H](O)O[C@@H]2O[C@@]3(C)CC[C@H]4[C@H](C)CC[C@@H]1[C@@]24OO3 [ARTENIMOL] | 4.34
C[C@H]1[C@H](OC(=O)CCC(=O)OCCCCn2ccnc2[N+](=O)[O-])O[C@@H]2O[C@@]3(C)CC[C@H]4[C@H](C)CC[C@@H]1[C@@]24OO3 | 4.78
C[C@H]1[C@H](OC(=O)CCC(=O)OCCCn2cnc(Br)c2)O[C@@H]2O[C@@]3(C)CC[C@H]4[C@H](C)CC[C@@H]1[C@@]24OO3 | 4.58
COc1ccc2[nH]cc(C(=O)OC3O[C@@H]4O[C@@]5(C)CC[C@H]6[C@H](C)CC[C@@H]([C@H]3C)[C@@]46OO5)c2c1 (stereo partly drawn) | 4.87
C[C@@H]1CC[C@H]2[C@@H](C)C(OC(=O)c3c[nH]c4ccccc34)O[C@@H]3O[C@@]4(C)CC[C@@H]1[C@]32OO4 (stereo partly drawn) | 4.89

Tested on: HepG2
Test: Antiproliferative activity against human HepG2 cells measured after 48 hrs by MTT assay
Format: functional, cell-based
Conditions: HepG2, 48 h

SMILES | pIC50
C[C@H]1[C@@H](O)O[C@@H]2O[C@@]3(C)CC[C@H]4[C@H](C)CC[C@@H]1[C@@]24OO3 [ARTENIMOL] | 4.50
C[C@H]1[C@H](OC(=O)CCC(=O)OCCCCn2ccnc2[N+](=O)[O-])O[C@@H]2O[C@@]3(C)CC[C@H]4[C@H](C)CC[C@@H]1[C@@]24OO3 | 4.67
C[C@H]1[C@H](OC(=O)CCC(=O)OCCCn2cnc(Br)c2)O[C@@H]2O[C@@]3(C)CC[C@H]4[C@H](C)CC[C@@H]1[C@@]24OO3 | 4.38
COc1ccc2[nH]cc(C(=O)OC3O[C@@H]4O[C@@]5(C)CC[C@H]6[C@H](C)CC[C@@H]([C@H]3C)[C@@]46OO5)c2c1 (stereo partly drawn) | 4.56
C[C@@H]1CC[C@H]2[C@@H](C)C(OC(=O)c3c[nH]c4ccccc34)O[C@@H]3O[C@@]4(C)CC[C@@H]1[C@]32OO4 (stereo partly drawn) | 4.82

Tested on: ADR5000 cell line
Test: Cytotoxicity against human CEM/ADR5000 cells by XTT assay
Format: functional, cell-based
Conditions: not given

SMILES | pIC50
C[C@@H]1CC[C@@H]2[C@]34OO[C@](C)(CC[C@@H]13)O[C@H]4OC[C@]2(C)O | 4.05
C[C@H]1[C@@H](O)O[C@@H]2O[C@@]3(C)CC[C@H]4[C@H](C)CC[C@@H]1[C@@]24OO3 [ARTENIMOL] | 5.74
